# From ChEMBL document CHEMBL1158639, “Synthesis and in vivo evaluation of [11C]MPTQ: a potential PET tracer for alpha2A-adrenergic receptors” (Bioorg Med Chem Lett, 2010)
# Legend:
# [1] = Metabolic stability in baboon brain assessed as compound remaining at 4.43 mCi after 90 mins; type: ADME, tissue-based; conditions: papio anubis, read-out: Stability
# [2] = Metabolic stability in baboon brain assessed as compound remaining at 4.43 mCi after 30 mins; type: ADME, tissue-based; conditions: papio anubis, read-out: Stability
# [3] = target: T1, Alpha-2C adrenergic receptor (Homo sapiens, UniProt P18825); experiment: Displacement of [3H]rauwolscine from adrenergic Alpha-2C receptor
# T1 sequence (P18825 whole entry): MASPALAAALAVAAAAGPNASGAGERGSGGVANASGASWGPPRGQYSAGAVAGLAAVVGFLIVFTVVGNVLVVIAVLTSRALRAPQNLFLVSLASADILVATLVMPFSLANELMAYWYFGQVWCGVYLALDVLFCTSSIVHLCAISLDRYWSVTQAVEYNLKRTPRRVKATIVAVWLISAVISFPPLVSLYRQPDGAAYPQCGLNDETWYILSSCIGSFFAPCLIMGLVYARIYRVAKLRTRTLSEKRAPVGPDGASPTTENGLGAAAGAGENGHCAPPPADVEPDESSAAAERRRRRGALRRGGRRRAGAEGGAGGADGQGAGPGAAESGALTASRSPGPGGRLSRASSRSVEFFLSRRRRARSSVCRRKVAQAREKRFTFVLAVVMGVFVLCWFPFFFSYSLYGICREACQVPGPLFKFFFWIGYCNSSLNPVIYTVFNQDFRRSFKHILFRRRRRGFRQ
# [4] = target: Sodium-dependent serotonin transporter (Homo sapiens, UniProt P31645); experiment: Displacement of [3H]paroxetine from 5HTT receptor
# Sequence of Sodium-dependent serotonin transporter (P31645 whole entry): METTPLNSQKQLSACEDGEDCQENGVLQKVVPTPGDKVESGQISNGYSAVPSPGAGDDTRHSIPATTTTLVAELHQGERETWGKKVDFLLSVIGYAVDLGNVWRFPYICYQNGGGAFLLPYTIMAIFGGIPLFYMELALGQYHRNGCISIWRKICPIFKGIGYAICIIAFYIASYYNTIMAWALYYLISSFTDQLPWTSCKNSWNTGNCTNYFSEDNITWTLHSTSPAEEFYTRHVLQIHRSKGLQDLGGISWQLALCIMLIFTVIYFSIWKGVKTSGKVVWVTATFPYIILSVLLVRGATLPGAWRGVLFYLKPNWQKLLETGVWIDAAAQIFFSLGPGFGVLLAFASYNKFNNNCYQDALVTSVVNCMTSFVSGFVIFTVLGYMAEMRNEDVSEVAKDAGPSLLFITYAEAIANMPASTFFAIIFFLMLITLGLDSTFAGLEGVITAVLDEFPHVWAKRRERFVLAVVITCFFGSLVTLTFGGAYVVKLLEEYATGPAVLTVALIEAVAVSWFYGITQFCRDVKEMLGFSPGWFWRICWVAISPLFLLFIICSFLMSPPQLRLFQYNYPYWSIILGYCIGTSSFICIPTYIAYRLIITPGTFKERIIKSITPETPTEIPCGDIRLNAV
remaining at 1.5 h [1],remaining at 0.5 h [2],Ki [3],Ki [4],SMILES
21%,35%,–,–,[11CH3]N1CC2C(=NO[C@H]2CN2CCN(C/C=C/c3ccccc3)CC2)c2ccccc21 (some centres undefined)
–,–,0.0045 µM,0.016 µM,CN1CC2C(=NO[C@H]2CN2CCN(C/C=C/c3ccccc3)CC2)c2ccccc21 (some centres undefined)
